Consider one molecule from patent US20100311674A1, “PHARMACEUTICAL COMPOSITIONS WITH A MECHANISM OF MULTI-TARGET RECEPTOR RETROACTION FOR TREATING DEPRESSION” (Yu-Fen Chi, priority 2007, published 2010).

Test [1] has as its system rat olfactory bulb lesion model. In words: Step through test (passive avoidance) of the rat olfactory bulb lesion model (Experiment 7). The settings on record: 2 mg/kg/d into the stomach, 24 days. It counts as in vivo. How it is done:
Olfactory bulb lesion model: Health Wistar male rats, secondary, 330±20 g of body weight, are purchased from Beijing Vital River Experimental Animal Technology Ltd. Co. (The quality certificate number: SCXK (JING) 2002-2003).
(§1) The above pharmaceuticals are prepared with 0.5% of sodium carboxymethylcellulose (CMC-Na) for feeding into the stomach. Benzylpenicillin sodium for injection is the product of North China Pharmaceutical Huasheng Co. Ltd. (Lot: S0511204), and norepinephrine (NE) and 5-hydrotryptamine (5-HT) standards are the products of Sigma Co. Other reagents are all marketed.
7.4.1 Group division and administration of drug: The rats are grouped randomly into 6 groups. 1. […]
7.5.2 Passive avoidance experiment (Step-through test): The step through box is configured by the light chamber and the dark chamber, and a channel is linked between the bright chamber and the dark chamber for mouse entrance and exit. […] The time that the rat enters into for the first time is recorded (electric-shocking latent period), and the time thereof is the learning record. […]
7.6 Statistic calculation: The experimental data are represented as X+SD, and the experimental result is calculated as ANOVA by SPSS 11.5 statistic software.

Test [2] concerns unpredictable long-term stimulus model. Nature of the test: Step-through test (passive avoidance), unpredictable long-term stimulus model (Experiment 8). The class given is in vivo, rat. The note with it: 2 mg/kg/d into the stomach, 24 days. The text has this: 7.5.2 Passive avoidance experiment (Step-through test): The step through box is configured by the light chamber and the dark chamber, and a channel is linked between the bright chamber and the dark chamber for mouse entrance and exit. The grille of the dark chamber is connected to the electric shock equipment, and a mobile plate is set there between. If the rat enters into the dark chamber, the rat will be electrically shocked. During training, the rat is placed in the light chamber and is back in the hole for adaptation for 5 minutes. Then the plate is removed and the rat is observed for another 5 minutes. The time that the rat enters into for the first time is recorded (electric-shocking latent period), and the time thereof is the learning record. After 24 hours, the test is repeated. The plate is removed and the dark chamber is electrified for 5 minutes so as to observe the time that the rat enters into the dark chamber for the first time. This is thereof the memory record.
Unpredictable long-term stimulus model: Health Wistar male rats, secondary, 240˜270 g of body weight, are purchased from Beijing Vital River Experimental Animal Technology Ltd. Co. (The quality certificate number: SOCK (JING) 2002-2003). […]
(§2) 8.6 Statistic calculation: The experimental data are represented as […], and the experimental result is calculated as ANOVA by SPSS 11.5 statistic software.

A further test has as its system ICR mice. In words: Mouse tail-hanging experiment (Experiment 3). The class given is in vivo. How it is done:
3.1 Experimental animals: ICR mice, male, 22.0±2 g of body weight, secondary, are provided by the Experimental Animal Science Department of Capital Medical University, Beijing. 3.2 Experiment pharmaceuticals: The pharmaceutical of Embodiment 2 is provided by Beijing Wormer Biotech. […] High dose of Embodiment 2 (80 mg/kg/d); 2. middle dose of Embodiment 2 (40 mg/kg/d); and 3. low dose of Embodiment 2 (20 mg/kg/d). 3.5.1 Group division and administration of drug: The mice are grouped randomly, and 10 mice are in each group. 1. High dose of Embodiment 2 (80 mg/kg, P.O., administered for 7 days); 2. middle dose of Embodiment 2 (40 mg/kg, P.O., administered for 7 days); 3. low dose of Embodiment 2 (20 mg/kg, P.O., administered for 7 days); 4. […] After 1 hour of the last administration of drug, the mouse tail-hanging experiment is proceeded. 3.5.2 Experimental method: The mouse's tail (1 cm to the tail end) is taped on the wood strip higher than the platform for 5 cm and hung up for 6 minutes. The time of non-movement of the mouse for the last 5 minutes is recorded. 3.5.3 Statistic calculation: The experimental data are represented as X±SD, and the experimental result is calculated as ANOVA by SPSS 11.5 statistic software.

A short description of test [3]: Body weight measurement, unpredictable long-term stimulus model (Experiment 8). The class given is in vivo, rat. The settings on record: 2 mg/kg/d into the stomach, 24 days. How it is done:
Unpredictable long-term stimulus model: Health Wistar male rats, secondary, 240˜270 g of body weight, are purchased from Beijing Vital River Experimental Animal Technology Ltd. Co. (The quality certificate number: SOCK (JING) 2002-2003).
as §1
8.4.1 Group division and administration of drug: The rats are grouped randomly into 6 groups. 1. False therapy group; 2. model group (control); 3. high dose of Embodiment 4 (60 mg/kg/d); 4. middle dose of Embodiment 4 (30 mg/kg/d); 5. low dose of Embodiment 4 (15 mg/kg/d); and 6. […] The test drugs and the positive control drug are prepared with 0.5% of CMC-Na for feeding into the stomach once every day.
Unpredictable long-term stimulus model: The rats in the control group eat and drink normally, and there is no stimulus performed. […]
as §2

Turning to `Fc1ccc([C@@H]2CCNC[C@H]2COc2ccc3c(c2)OCO3)cc1` [Paroxetine], the “Latent period of the 1st day” value in test [1] (learning record) is on record as 181.87 ± 90.54 s. Moreover, in test [1] (memory record), the “Latent period of the 2nd day” value is given as 265.00 ± 65.39 s. For the same molecule, the “Latent period of first day” value in test [2] (learning record) is on record as 75.75 ± 46.52 s. Also, in test [2] (memory record), the “Latent period of second day” value was 257.46 ± 66.92 s. In addition, the Time of non-movement in the test on ICR mice (3 mg/kg P.O. 7 days, 1 h after last dose, last 5 of 6 min) came out at 75.33 ± 22.91 s. In addition, the “Effect on time of non-movement after the mouse's tail is hung up (in words)” value in the test on ICR mice (middle dose of Embodiment 2, Paroxetine, significantly different from control) is “decrease the time of non-movement”. The Increasing body weight in test [3] is on record as 96.85 ± 9.30 g.
